# Tests used:
# thrombin [1] = experiment: IC50 values: percentage reversal of TRI 50c inhibition of thrombin by hydroxy fatty acid; format: biochemical; conditions: thrombin 33.3 ng/ml, TRI 50c 300 nM final, 30 minutes at 37° C., S2238
# Description: 50 μl thrombin (33.3 ng/ml in assay buffer) and 20 μl TRI 50c (300 nM final) were added to 10 μl assay buffer (100 mM Na orthophosphate (80% Na2HPO4 and 20% NaH2PO4), 200 mM NaCl, 0.5% PEG 6000, 0.02% Na azide, pH 7.5) and incubated for 5 minutes at 37° C. After the incubation period 100 μl of hydroxy fatty acid was added and further incubated for 30 minutes at 37° C. […] Results were expressed as percentage reversal of TRI 50c inhibition.
# [2] = Neutralisation by cholesteryl linoleate hydroperoxide (residual TRI-50b concentration)
# Description: Cholesteryl linoleate hydroperoxide (44 μM) was incubated with TRI-50b in the range 0 to 4.9 mM. Samples were taken at timed intervals and the residual TRI-50b concentration was determined by Method C (Materials and Methods).
# thrombin [3] = molecular target: T1, thrombin (Homo sapiens, UniProt P00734); experiment: Thrombin amidolytic assay (FIGS. 1 to 3): neutralisation of TRI 50c inhibition of thrombin; format: biochemical; conditions: for neutralising the effect of TRI 50c (thrombin activity restored): added after 100 nM TRI 50c; for TRI 50c neutralising activity: FIG. 2, cholesterol linoleic acid esters and free linoleic acids, stereoisomers; for neutralising ability against TRI 50c: FIG. 3, over 30 minutes
# T1 construct: purchased Haematologic Technologies Inc
# Description: Peptide boronate inhibitors were synthesised by Trigen Limited. Thrombin was obtained from Haematologic Technologies Inc. Chromogenic substrate was obtained from Quadratech. Linoleic acid analogues were obtained from Cayman Chemicals USA. Buffer reagents were obtained from Merck.
# Peptide boronate inhibitor of thrombin (TRI 50c, 100 nM) was incubated with thrombin (33.3 ng/ml) in assay buffer (100 mM sodium phosphate, 200 mM NaCl, 0.5% PEG 6000 and 0.02% sodium azide, pH 7.5) for 5 minutes at 37° C. Test compounds were then added and incubated for various amounts of time prior to the addition of S2238 chromogenic substrate (5 uM). The reaction was followed at […] and 37° C. using a Thermomax kinetic plate reader (Molecular Devices Corporation). Results of the assay are expressed as percentage activities of thrombin relative to that seen in the absence of inhibitor or antidote.
# [4] = Assay for deboronation (LCMS of TGN 255/9(S)-HODE mixture); conditions: TGN 255 6.7 mg/ml, 9(S)-HODE 0.01 mg/ml, 37° C. 30 mins, then room temperature overnight; uv chromatogram and mass
# Description: This Example relates to a method for detecting the amount of deboronation of a product, TRI 50, in the presence of 9-HODE. A proposed mechanism for the degradation of TRI 50 is shown below.
# The thrombin buffer was made up of 100 mM NaOphosphate [80% Na2HPO4 (11.36 g/l anhydrous)+20% NaH2PO4 (2.4 g/l anhydrous)], 200 mM NaCl (11.688 g/l), 0.5% PEG 6000 (5 g/l), 0.02% Na azide (0.2 g/l), pH 7.5.
# TGN 255 (20 mg) was dissolved in DMSO (1.9 ml). To this was added thrombin buffer (0.8 ml), followed by 9(S)-HODE (supplied by Cayman Chemical) in thrombin buffer (0.3 ml, 337 uM). The solution was incubated at 37° C. for 30 mins.
# Samples of TGN 255 (14 mg/ml in methanol) and Impurity I (5.6 mg/ml in methanol) were prepared as standards. The 9(S)-HODE assay sample was allowed to stand at room temperature overnight and analysed the following day.
Compound,IC50 (thrombin [1]),further results
"C[C@H]1CCC/C=C/C2C[C@H](O)CC2[C@H](O)/C=C/C(=O)O1 (single isomer, unassigned; (+)) [(+)-Brefeldin A, reference compound]",> 30 µM,
cholesterol hydroperoxylinoleic acid ester [CLOOH],,"equivalence of neutralisation ([2]; 44 μM cholesteryl linoleate hydroperoxide mixed with TRI-50b): approximately 1 mole/mole; rate of neutralisation of TRI-50b ([2]; 44 μM cholesteryl linoleate hydroperoxide, TRI-50b 0 to 4.9 mM): high rate of neutralisation; neutralising the effect of TRI 50c (thrombin activity restored) (thrombin [3]; FIG. 1): effective in neutralising the effect of TRI 50c; TRI 50c neutralising activity (thrombin [3]): particularly good"
CC/C=C\C/C=C\C=C\[C@@H](O)CCCCCCCC(=O)O [9(S)-HOTRE],> 30 µM,
"CCCCC[C@@H](/C=C/C=C\CCCCCCCC(=O)O)OO [13(S)-HpODE, 13(S)-hydroperoxy-octadecadienoic acid]",,TRI 50c neutralising activity (thrombin [3]): particularly good
"CCCCC/C=C\C=C\[C@H](CCCCCCCC(=O)O)OO [9(S)-HpODE, 9-(S)-hydroperoxy-10E,12Z-octadecadienoic acid]",> 30 µM,
CCCCC/C=C\C=C\C(O)CCCCCCCCCC(=O)O (racemic) [(+/−)11-HEDE],> 30 µM,
"9,13- hydroxy cholesterol linoleic acid ester [9/13-CLOH]",,neutralising the effect of TRI 50c (thrombin activity restored) (thrombin [3]; FIG. 1): effective in neutralising the effect of TRI 50c
"COCCC[C@H](NC(=O)[C@@H]1CCCN1C(=O)[C@@H](Cc1ccccc1)NC(=O)OCc1ccccc1)B(O)O [TRI 50c, Cbz-(R)-Phe-(S)-Pro-(R)-Mpg-B(OH)2, reference compound]",,"thrombin activity as compared with the control (no TRI 50c present) (thrombin [3]; FIG. 1, addition of 100 nM TRI 50c, thrombin 33.3 ng/ml, S2238 substrate): approximately 50%"
CCCCC/C=C\C=C\[C@@H](O)CCCCCCCC(=O)OC1CC[C@@]2(C)C(=CCC3C4CCC(C(C)CCCC(C)C)[C@@]4(C)CCC32)C1 (stereo partly drawn) [9(S)-HODE cholesteryl ester],4.4 µM,TRI 50c neutralising activity (thrombin [3]): particularly good; neutralising ability against TRI 50c (thrombin [3]): very good
"CCCCCC=CC=CC(O)CCCCCCCC(=O)O[C@H]1CC[C@@]2(C)C(=CC[C@H]3[C@@H]4CC[C@H]([C@H](C)CCCC(C)C)[C@@]4(C)CC[C@@H]32)C1 (stereo partly shown) [9-CLOH, 9-hydroxy cholesterol linoleic acid ester]",,neutralising the effect of TRI 50c (thrombin activity restored) (thrombin [3]; FIG. 1): effective in neutralising the effect of TRI 50c

# Now from value to compound, other results behind:
IC50 (thrombin [1]),Compound,further results
> 30 µM,"CC1(C)[C@@]2(C)CC[C@]1(C)[C@H](CC(=O)O)[C@H]2O [(−)-Isoborneolacetic Acid, reference compound]",
16 µM,"CCCCC/C=C\C/C=C\C=C\[C@@H](O)CCCCCCC(=O)O [8(S)-HETRE, 8(S)-hydroxy-9E, 11Z, 14Z-eicosatrienoic acid]",
25 µM,CCCCC/C=C\C/C=C\C/C=C\C=C\[C@H](CCCC(=O)O)OO [5(S)-HPETE],
> 30 µM,CCCCC/C=C\C/C=C\C=C\C(O)C/C=C\CCCC(=O)O (racemic) [(+/−)8-HETE],
> 30 µM,CCCCC/C=C\C=C\[C@H](O)CCCCCCCC(=O)O [9(R)-HODE],
12 µM,"CCCCC/C=C\C=C\[C@@H](O)CCCCCCCC(=O)O [9(S)-HODE, 9(S)-hydroxy-10E,12Z-octadecadienoic acid]",deboronation/degradation of TGN 255 to Impurity I [4]: degradation has occurred; TRI 50c neutralising activity (thrombin [3]): particularly good; neutralising ability against TRI 50c (thrombin [3]): particularly good effect
> 30 µM,"COC(=O)[C@H]1CC2CCC1[C@@H](O)C2 (stereo in doubt) [Methyl 6-hydroxybicyclo[2.2.2]octane-2-carboxylate, reference compound]",
> 30 µM,"CCCCC/C=C\C/C=C\CC(O)C(O)C/C=C\CCCC(=O)O (racemic) [(+/−)8,9-DIHETRE]",
> 30 µM,CCCCC/C=C\C/C=C\C/C=C\C=C\C(O)CCCC(=O)O (racemic) [(+/−)5-HETE],
14 µM,"CC/C=C\C/C=C\C/C=C\C=C\[C@@H](O)C/C=C\CCCC(=O)O [8(S)-HEPE, 8(S)-hydroxy-5Z, 9E, 11Z, 14Z, 17Z-eicosapentaenoic acid]",
